Measurements taken from patent US20160038518A1, “METHODS FOR TREATING PSORIASIS AND VASCULAR INFLAMMATION” (VASCULAR BIOGENICS LTD., priority 2012, published 2016).
Where two headings read alike, the source gives them in different places.

Assays:
[1] = tested on: vascular inflammation of carotid arteries and ascending aorta in patients with moderate to severe plaque psoriasis; assay: 18-FDG PET/CT sub-study of phase 2 trial: vascular inflammation as target to background ratio (TBR); type: in vivo, human; conditions: 12 weeks
From the text: This study was a sub-study of the above phase 2, randomized, double-blind, multicenter trial, of patients (aged 18-75) with moderate to severe plaque psoriasis, see also infra at Example 3. […] In addition, patients enrolled into the sub-study had to have the presence or history of one of the following: non-insulin dependent diabetes mellitus (NIDDM), peripheral vascular disease (PVD), smoker, hypertension, ischemic heart disease or cerebrovascular disease; obesity (BMI ≧25), hypercholesterolemia (LDL>160 mg/dL or taking anti-hyperlipidemia treatment), or family history of ischemic heart disease (in brother or father before age 55, in sister or mother before age 65) or at least 40 years of age with a history of psoriasis for at least 7 years. Patients were randomly assigned (1:1:1) to receive VB-201 20 mg, VB-201 80 mg or placebo for 12 weeks. The primary endpoint was the maximum TBR in the most diseased segment (MDS) of an index vessel at 12 weeks (percent change from baseline). The effect of treatment with 20 mg per day and 80 mg per day VB-201 on carotid arteries and ascending aorta inflammation was examined. Inflammation was measured by positron emission computed tomography (PET-CT) to quantify 18-fluorodeoxyglucose (18-FDG) uptake as a target to background ratio (TBR).
[…] imaging was performed following an overnight fast using a PET-CT scanner system with CT attenuation correction. 18-FDG was administered intravenously at a dose of 370 MBq and PET images were acquired approximately 90 minutes after injection. Baseline scans were evaluated and all inflammatory plaques in the left and right carotid arteries and ascending aorta were identified and totaled for each treatment group. PET scans were performed at Harvard Medical School and Massachusetts General Hospital, Boston, Mass., USA and at Translational and Molecular Imaging Institute and Department of Radiology, Mount Sinai School of Medicine, New York, N.Y., USA. All scans were analyzed by a central reader at the Mount Sinai center in New York City. The TBR was calculated from the ratio of the standard uptake values (SUV) of the target compared to background venous activity:
TBR (Target Background Ratio)=Target activity SUVTarget/SUV Background Venous Activity
The baseline and 12-week PET/CT datasets for each patient were structurally co-registered with each other, and FDG uptake was compared across each patient's images within pre-defined sections of the target vessels. For the aorta, measurements were made every 3 mm, starting 1 cm above the aortic valve annulus, continuing to the bottom of the aortic arch. For the right and left carotids, measurements were made every 3 mm, starting at the level of the carotid artery bifurcation, and continuing inferiorly 4 cm into the common carotid artery. Measurements were made in the axial plane by drawing a region of interest (ROI) around the artery wall and the maximum standardized uptake value (SUV) was recorded as the time- and dose-corrected tissue radioactivity divided by body weight. This represented the values for the target tissue. For the carotid arteries, the SUV Mean from the lumen of the jugular vein was used in at least 10 consecutive slices (at least 5 on each side). For the aorta, the background SUVMean from the atrium or SVC was used in at least 10 consecutive slices.
All statistical tests were two-sided with a significance level of 5%, unless specified otherwise, and were performed using SASS Version 9.2. Data was summarized using descriptive statistics (number of patients [N], mean, standard deviation [SD], median, minimum, and maximum).
Subjects were scanned by PET-CT to determine baseline 18-FDG uptake, and those with a TBR of at least 1.6 in either the carotid artery or the ascending aorta were selected. After screening and establishment of a baseline, eligible subjects were randomly assigned to receive 20 mg per day VB-201, 80 mg per day VB-201 or a daily placebo, for a period of 12 weeks. […]

[2] = tested on: patients with moderate to severe plaque psoriasis; assay: safety evaluation in the Phase II clinical study; type: in vivo, human
Procedure: The efficacy analyses were performed on the data from a modified intention-to-treat (MITT) population (defined as all patients randomized who received at least one dose of medication and had at least one efficacy evaluation). The safety analyses were performed on all randomized patients who received at least one dose of the drug.

[3] = Procedure: Additional criteria included change in affected body surface area from baseline to week 12, change in PGA score from baseline to week 12, any change relative to baseline PASI score, and change in Patient Psoriasis Global Assessment (PtGA) score from baseline to week 12. Blood samples were taken at weeks 4, 8 and 12, in order to assess VB-201 pharmacokinetics, as well as plasma cytokine levels. Safety of VB-201 administration was evaluated by physical examination, incidence of adverse effects, vital signs, clinical chemistry, hematology, urinalysis and electrocardiograms.
[4] = tested on: humans; assay: tolerability of daily dose in human clinical studies; type: in vivo
[5] = tested on: human CD 14+ monocytes; conditions: VB-201 5 μg/ml prior to chemotaxis assay; MCP-1 (50 ng/ml), MIP-1a (50 ng/ml) or RANTES (100 ng/ml); FIG. 1A
[6] = 80 mg group, patients not taking concomitant statins
[7] = patients taking statins (6 on 20 mg and 6 on 80 mg), p=0.01

CCCCCCCCCCCCCCCCOC[C@H](COP(=O)([O-])OCC[N+](C)(C)C)OCCCCC(=O)O [VB-201, 1-hexadecyl-2-(4′-carboxy)butyl-sn-glycero-3-phosphocholine]
change from baseline in 18-FDG-PET MDS TBR of the index vessel ([1]; 20 mg/day, p=0.14): −7.3%
mean change from baseline of the maximum TBR in the MDS in the index vessel [1, 6]: −0.39
percent change from baseline of the maximum TBR in the MDS in the index vessel [1, 6]: −8.84%
change from baseline in 18-FDG-PET MDS TBR of the index vessel ([1]; 80 mg/day, p=0.04): −12.7%
dose response of TBR change across quartiles of VB-201 trough blood levels ([1]; p=0.037, FIG. 5): A dose response was seen
reduction from baseline in vascular inflammation based on PET-CT measure ([1]; VB-201 80 mg group, p=0.04): 12.7%
reduction from baseline in vascular inflammation based on PET-CT measure ([1]; combined VB-201 treated group, p=0.01): 9.8%
inflammation of the ascending aorta (18-FDG uptake) ([1]; one patient with breast implants, 20 mg/day, FIG. 6): inflammation of the aorta in the patient was also reduced
mean change from baseline of the maximum TBR in the MDS in the index vessel [1, 7]: −0.74
percent change from baseline of the maximum TBR in the MDS in the index vessel [1, 7]: −18.48%
severity of diarrhea cases ([2]; 80 mg/day): mild (Grade 1) and transient
diarrhea rate ([2]; 80 mg/day (placebo 6.8%)): 15.3%
safety and tolerability ([2]; PET-CT sub-study, 20 or 80 mg/day, 12 weeks): safe and well tolerated
tolerability ([2]; doses of 20 mg/day and 80 mg/day): well tolerated
overall rate of Serious Adverse Events ([2]; main study, 2 subjects): 1.6%
deaths on therapy ([2]; main study, 12 weeks): No deaths occurred on therapy
related Serious Adverse Events ([2]; main study, 12 weeks): No related Serious Adverse Events were observed
overall rate of discontinuation due to Adverse Events ([2]; on VB-201, 4 subjects): 3.2%
mean VB-201 trough level ([3]; patients in quartile 1): about 0 ng/mL
mean VB-201 trough level ([3]; patients in quartile 4): about 3,640 ng/mL
gastrointestinal events ([4]; higher dose (e.g., 160 mg/day) in multiple sub-doses e.g. 12 hours apart, each about 80 mg or less): largely avoided
tolerability ([4]; humans, single daily dose): well tolerated up to a dose of about 80 mg/day
gastrointestinal events (G-I intolerance, mainly nausea and vomiting) ([4]; larger doses (e.g., 160 mg/day) as a single daily dose): associated with certain gastrointestinal events
human monocyte migration towards chemoattractants [5]: decreases human monocyte migration
